Experimental data: US20080188654A1, “Compounds for treatment of inflammation, diabetes and related disorders” (Theracos, Inc., priority 2001, published 2008)

Key:
[1] = test system: 3T3-L1 differentiated adipocytes; test: Glucose uptake in 3T3-L1 adipocytes (14C-deoxyglucose); type: cell-based, mouse; conditions: different concentrations, 48 hours; percentage of basal; FIG. 1
iNOS = test: Inhibition of LPS-induced iNOS production in RAW264.7 cells (Western blot); type: cell-based, mouse; conditions: 10, 30 or 100 μM; FIG. 8
COX-1 = COX-1 production in LPS-stimulated RAW264.7 cells (Western blot); type: cell-based, mouse; conditions: FIG. 8
ob/ob mice [2] = test: Lipid-lowering effects in ob/ob mice; type: in vivo, mouse; conditions: 10 mg/kg daily oral, day 8, versus vehicle, p<0.05
ob/ob mice [3] = test: Glucose-lowering effect in ob/ob mice; type: in vivo, mouse; conditions: 10 mg/kg daily oral, p<0.05
COX-2 = test: Inhibition of LPS-induced COX-2 production in RAW264.7 cells (Western blot); type: cell-based, mouse; conditions: LPS-stimulated cells; FIG. 8
IL-6 = test: Inhibition of LPS-induced IL-6 production in RAW264.7 cells (ELISA); type: cell-based, mouse
3T3-L1 adipocytes = test: Insulin-stimulated glucose uptake in 3T3-L1 adipocytes; type: cell-based, mouse; conditions: 5 μM, 48 hours; compared to vehicle; FIG. 2
IL-1 beta = test: Inhibition of LPS-induced IL-1 beta production in RAW264.7 cells (ELISA); type: cell-based, mouse
TNF-alpha [4] = test: Inhibition of LPS-induced TNF-alpha production in RAW264.7 cells (ELISA); type: cell-based, mouse
[5] = test system: PDE4 partially purified from human U-937 promonocytic cells; test: Inhibition of PDE4 enzyme activity; type: biochemical
TNF-alpha [6] = test: Inhibition of LPS-induced TNF-alpha release by human monocytes; type: cell-based; conditions: Monocyte, read-out: Percent Inhibition of TNF-alpha Release
[7] = test system: mouse mesenteric lymph node cells; test: Inhibition of anti-CD3/anti-CD28 stimulated lymphocyte proliferation; type: cell-based
[8] = molecular target: T1, PDE3 partially purified from human platelets (Homo sapiens, UniProt Q14432); test: Inhibition of PDE3 enzyme activity; type: biochemical; conditions: read-out: Percent Inhibition of Enzyme Activity
T1 construct: PDE3 partially purified from human platelets were used; from tissue; host or cells: human platelets (partially purified enzyme)
T1 sequence (Q14432 whole entry): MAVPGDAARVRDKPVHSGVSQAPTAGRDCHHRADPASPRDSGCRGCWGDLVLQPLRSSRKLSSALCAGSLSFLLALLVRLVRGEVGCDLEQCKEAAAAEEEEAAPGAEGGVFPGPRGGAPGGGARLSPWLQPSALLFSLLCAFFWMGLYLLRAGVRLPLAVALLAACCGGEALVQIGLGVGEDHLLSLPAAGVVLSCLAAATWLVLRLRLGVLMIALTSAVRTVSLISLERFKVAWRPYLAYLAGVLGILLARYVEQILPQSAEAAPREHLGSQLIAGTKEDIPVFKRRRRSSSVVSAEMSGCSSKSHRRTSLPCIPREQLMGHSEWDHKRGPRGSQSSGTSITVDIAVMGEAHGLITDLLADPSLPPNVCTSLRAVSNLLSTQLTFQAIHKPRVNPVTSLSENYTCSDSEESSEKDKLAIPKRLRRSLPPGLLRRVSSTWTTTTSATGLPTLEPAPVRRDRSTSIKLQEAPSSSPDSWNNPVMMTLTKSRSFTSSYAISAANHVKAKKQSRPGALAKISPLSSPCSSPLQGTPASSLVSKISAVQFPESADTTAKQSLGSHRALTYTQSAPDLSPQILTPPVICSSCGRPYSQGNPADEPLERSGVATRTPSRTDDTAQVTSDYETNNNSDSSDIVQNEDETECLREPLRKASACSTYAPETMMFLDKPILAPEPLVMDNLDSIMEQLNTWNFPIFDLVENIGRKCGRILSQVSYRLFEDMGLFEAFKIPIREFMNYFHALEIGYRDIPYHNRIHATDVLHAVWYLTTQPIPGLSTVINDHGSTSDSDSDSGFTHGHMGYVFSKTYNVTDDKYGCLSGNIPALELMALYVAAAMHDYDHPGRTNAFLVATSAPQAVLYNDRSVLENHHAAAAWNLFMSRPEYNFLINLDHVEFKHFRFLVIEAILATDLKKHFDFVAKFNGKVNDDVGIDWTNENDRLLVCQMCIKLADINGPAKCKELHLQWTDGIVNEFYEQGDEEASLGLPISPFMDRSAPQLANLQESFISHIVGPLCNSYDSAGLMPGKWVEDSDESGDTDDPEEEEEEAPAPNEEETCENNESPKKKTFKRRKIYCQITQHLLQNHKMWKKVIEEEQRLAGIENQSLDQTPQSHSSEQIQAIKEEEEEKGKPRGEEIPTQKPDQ

p44/42 MAP kinase = test: Inhibition of phosphorylation of p44/42 MAP kinase in RAW 264.7 gamma NO(-) cells (Western blot); type: cell-based, mouse; conditions: for inhibition of LPS-induced phosphorylation of p44/42 MAP kinase: 10 ng/ml LPS
DBA/1J mice = test: Collagen-induced arthritis in mice; type: in vivo, mouse
TNF-alpha [9] = test: Inhibition of LPS-induced TNF-alpha production in mice; type: in vivo, mouse; conditions: for Percent TNF Production (Mean ± SEM): plasma 1 h after LPS, vehicle = 100%, p < 0.05; for inhibition of LPS-induced TNF-alpha production in mice: 50 or 100 mg/kg oral
[10] = test system: human elutriated monocytes; test: Cell viability of human monocytes (MTS/PMS assay); type: cell-based; conditions: 30 μM, 20 h
[11] = high dose, 100 mg/kg oral twice daily 14 days

With `COC(=O)C(=Cc1cc(OC)cc(OC)c1)c1ccc(Oc2ccc(CCC(=O)NC(N)=O)cc2)cc1` [Compound 1, 3-(3,5-dimethoxyphenyl)-2-{4-[4-(3-oxo-3-ureidopropyl)-phenoxy]-phenyl}-acrylic acid methyl ester] the glucose uptake [1] was “dose-dependent increase in glucose uptake”, the “inhibition of LPS-induced iNOS production” value (iNOS) was “dose-dependent inhibition” and the “inhibition of COX-1 production” value (COX-1) was “not COX-1”. The “free fatty acids lower” value (ob/ob mice [2]) was 19%, the serum triglycerides lower (ob/ob mice [2]) was 49% and the “decrease in blood glucose levels” value (ob/ob mice [3]; day 6, versus vehicle) was 36%. For the same compound, the “decrease in blood glucose levels” value (ob/ob mice [3]; day 8, versus vehicle) was 23%, the “inhibition of COX-2 production” value (COX-2) was “selectively inhibited production of COX-2” and the “inhibition of LPS-induced IL-6 production” value (IL-6; 10, 30 or 100 μM, FIG. 7) was “significantly inhibited”. For the same compound, the “inhibitory effect on IL-6 compared with dexamethasone” value (IL-6; versus 1 μM dexamethasone) was “greater than that observed with dexamethasone”, the “stimulation of glucose uptake by insulin” value (3T3-L1 adipocytes) was “enhanced the stimulation of glucose uptake by insulin” and the “inhibition of LPS-induced IL-1 beta production” value (IL-1 beta; 10, 30 or 100 μM, FIG. 6) was “significantly inhibited”. The “inhibition of IL-1 beta compared with dexamethasone” value (IL-1 beta; versus 1 μM dexamethasone) was “of the same approximate magnitude as that seen with dexamethasone”, the “inhibition of LPS-induced TNF-alpha production” value (TNF-alpha [4]; 10, 30 or 100 μM, FIG. 5) was “significantly inhibited” and the “inhibitory effect on TNF-alpha compared with dexamethasone” value (TNF-alpha [4]; versus 1 μM dexamethasone) was “approached that seen with dexamethasone”.
In the case of `COc1cc(/C=C(/C(=O)N(C)C)c2ccc(Oc3ccc(CCC(=O)NC(N)=O)cc3)cc2)cc(OC)c1` [Compound 13, 3-(3,5-dimethoxyphenyl)-N,N-dimethyl-2-{4-[4-(3-oxo-3-ureido-propyl)-phenoxy]-phenyl}-acrylamide], the IC50 ([5]; PDE4) is reported as under 1000 nM, the “Percent Inhibition of Enzyme Activity” value ([5]; PDE4, 1 μM) is reported as 85% and the “Percent Inhibition of Enzyme Activity” value ([5]; PDE4, 10 μM) is reported as 98%. For the same compound, the “Percent Inhibition of Enzyme Activity” value ([5]; PDE4, 30 μM) was 102%, the inhibition at 0.3 µM (TNF-alpha [6]) was 15% and the inhibition at 1 µM (TNF-alpha [6]) was 40%. For the same compound, the inhibition at 3 µM (TNF-alpha [6]) was 70%, the inhibition at 10 µM (TNF-alpha [6]) was 78% and the inhibition at 30 µM (TNF-alpha [6]) was 78%. The “O.D. (Mean ± SD)” value ([7]; 10 μM + anti-CD3/anti-CD28 mAbs, 67 h, MTS/PMS, 505 nm) was 0.578 ± 0.012, the inhibition at 10 µM ([7]; Mus musculus, Lymphocyte, 10 μM, stimulated by anti-CD3/anti-CD28 monoclonal antibodies) was about 50% and the inhibition at 1 µM ([8]; PDE3, 1 μM) was 20%. For the same compound, the inhibition at 10 µM ([8]; PDE3, 10 μM) was 52%, the inhibition at 30 µM ([8]; PDE3, 30 μM) was 55% and the “inhibition of LPS-induced phosphorylation of p44/42 MAP kinase” value (p44/42 MAP kinase; 10 μM) was “not”. The “inhibition of LPS/IFN-gamma induced phosphorylation of p44/42” value (p44/42 MAP kinase; 30 μM and 10 μM, LPS (10 ng/ml)/IFN-gamma (10 U/ml)) was “inhibited LPS/IFN-gamma induced phosphorylation of p44/42 in a dose-dependent manner” and the “inhibition of LPS-induced phosphorylation of p44/42 MAP kinase” value (p44/42 MAP kinase; 30 μM) was “inhibited”.
For `COc1cc(/C=C(/C(=O)N(C)C)c2ccc(Oc3ccc(CCC(N)=O)cc3)cc2)cc(OC)c1` [Compound 31, 2-{4-[4-(2-carbamoylethyl)-phenoxy]-phenyl}-3-(3,5-dimethoxyphenyl)-N,N-dimethylacrylamide], the “arthritis clinical score (severity)” value (DBA/1J mice; [11]) was “prevented the increase in severity”, the “histology of hind limbs” value (DBA/1J mice; [11]) was “reduction in incidence and severity of pannus formation, inflammation cell infiltration and bone/cartilage damage” and the “histology of hind limbs” value (DBA/1J mice; low dose, 40 mg/kg oral twice daily 14 days) was “marked chronic inflammation of synovium with pannus formation and destruction of bone and cartilage”. For the same compound, the “arthritis clinical score (severity)” value (DBA/1J mice; low dose, 40 mg/kg oral twice daily 14 days, compared with vehicle) was “no apparent effect”, the inhibition at 1 µM (TNF-alpha [6]) was 51% and the inhibition at 3 µM (TNF-alpha [6]) was 73%. For the same compound, the inhibition at 10 µM (TNF-alpha [6]) was 83%, the inhibition at 30 µM (TNF-alpha [6]) was 86% and the “Percent TNF Production (Mean ± SEM)” value (TNF-alpha [9]; 50 mg/kg oral) was 68 ± 11%. The “Percent TNF Production (Mean ± SEM)” value (TNF-alpha [9]; 100 mg/kg oral) was 53 ± 20% and the “inhibition of LPS-induced TNF-alpha production in mice” value (TNF-alpha [9]) was “significantly inhibited”.
With `CCOC(=O)CCc1ccc(Oc2ccc(/C(=C\c3cc(OC)cc(OC)c3)C(=O)N(C)C)cc2)cc1` [Compound 37, 3-(4-{4-[2-(3,5-dimethoxyphenyl)-1-dimethylcarbamoylvinyl]-phenoxy}-phenyl)-propionic acid ethyl ester] the inhibition at 1 µM (TNF-alpha [6]) was 17%, the inhibition at 3 µM (TNF-alpha [6]) was 38% and the inhibition at 10 µM (TNF-alpha [6]) was 65%. It also gave an inhibition at 30 µM (TNF-alpha [6]) of 78%.
Work on `COc1cc(/C=C(/C(=O)N(C)C)c2ccc(NC(=O)c3cccc(O)c3)cc2)cc(OC)c1` [Compound 44, N-{4-[2-(3,5-dimethoxyphenyl)-1-dimethylcarbamoylvinyl]-phenyl}-3-hydroxybenzamide] yielded an inhibition at 0.3 µM (TNF-alpha [6]) of 32%, an inhibition at 3 µM (TNF-alpha [6]) of 67% and an inhibition at 30 µM (TNF-alpha [6]) of 91%.
With `COc1cc(/C=C(/C(=O)N(C)C)c2ccc(O)cc2)cc(OC)c1` [Compound 49, 3-(3,5-dimethoxyphenyl)-2-(4-hydroxyphenyl)-N,N-dimethylacrylamide] the inhibition at 3 µM (TNF-alpha [6]) was 14%, the inhibition at 10 µM (TNF-alpha [6]) was 47% and the inhibition at 30 µM (TNF-alpha [6]) was 54%.
`COc1cc(/C=C(/C(=O)N2CCCCC2)c2ccc(Oc3ccc(CCC(=O)NC(N)=O)cc3)cc2)cc(OC)c1` [Compound 51, [3-(4-{4-[2-(3,5-dimethoxyphenyl)-1-(piperidine-1-carbonyl)-vinyl]-phenoxy}-phenyl)-propionyl]-urea] was tested, and the inhibition at 3 µM (TNF-alpha [6]) was 25%, the inhibition at 10 µM (TNF-alpha [6]) was 57% and the Cell viability [10] was “* (Cell viability <70%)”.
In the case of `CC(=O)NC(=O)CCc1ccc(Oc2ccc(/C(=C\c3ccc(F)cc3)C(=O)N(C)C)cc2)cc1` [Compound 56, 2-{4-[4-(3-acetylamino-3-oxopropyl)-phenoxy]-phenyl}-3-(4-fluorophenyl)-N,N-dimethylacrylamide], the inhibition at 0.3 µM (TNF-alpha [6]) is reported as 1%, the inhibition at 3 µM (TNF-alpha [6]) is reported as 6% and the inhibition at 30 µM (TNF-alpha [6]) is reported as 54%.
`COc1cc(/C=C(/C(=O)N(C)C)c2ccc(Oc3ccc(CC(C(N)=O)C(N)=O)cc3)cc2)cc(OC)c1` [Compound 59, 2-(4-{4-[2-(3,5-dimethoxyphenyl)-1-dimethylcarbamoylvinyl]-phenoxy}-benzyl)-malonamide] was tested, and the inhibition at 0.3 µM (TNF-alpha [6]) was 27%, the inhibition at 3 µM (TNF-alpha [6]) was 69% and the inhibition at 30 µM (TNF-alpha [6]) was 80%.
`COc1cc(/C=C(/C(=O)N(C)C)c2ccc(Oc3ccccn3)cc2)cc(OC)c1` [Compound 66, 3-(3,5-dimethoxyphenyl)-N,N-dimethyl-2-[4-(pyridin-2-yloxy)-phenyl]-acrylamide] showed an inhibition at 0.3 µM (TNF-alpha [6]) of 27%, an inhibition at 3 µM (TNF-alpha [6]) of 53% and an inhibition at 30 µM (TNF-alpha [6]) of 84%.
With `COc1cc(/C=C(/C(=O)N(C)C)c2ccc(NC(=O)c3ccccc3)cc2)cc(OC)c1` [Compound 67, N-{4-[2-(3,5-dimethoxyphenyl)-1-dimethylcarbamoylvinyl]-phenyl}-benzamide] the inhibition at 0.3 µM (TNF-alpha [6]) was 40%, the inhibition at 3 µM (TNF-alpha [6]) was 62% and the inhibition at 30 µM (TNF-alpha [6]) was 89%.
For `CCOC(=O)CCc1ccc(Oc2ccc(C(=Cc3ccc4c(c3)OCO4)C(=O)N(C)C)cc2)cc1` [Compound 69, 3-{4-[4-(2-benzo[1,3]dioxol-5-yl-1-dimethylcarbamoylvinyl)-phenoxy]-phenyl}-propionic acid ethyl ester], the inhibition at 0.3 µM (TNF-alpha [6]) was 1%, the inhibition at 3 µM (TNF-alpha [6]) was 22% and the inhibition at 30 µM (TNF-alpha [6]) was 50%.
For `CN(C)C(=O)/C(=C/c1cccnc1)c1ccc(Oc2ccc(CC(C(N)=O)C(N)=O)cc2)cc1` [Compound 71, 2-{4-[4-(1-dimethylcarbamoyl-2-pyridin-3-ylvinyl)-phenoxy]-benzyl}-malonamide], the inhibition at 0.3 µM (TNF-alpha [6]) was 20%, the inhibition at 3 µM (TNF-alpha [6]) was 47% and the inhibition at 30 µM (TNF-alpha [6]) was 65%.
`CN(C)C(=O)/C(=C/c1cccnc1)c1ccc(Oc2ccc(CCC(=O)NC(N)=O)cc2)cc1` [Compound 73, N,N-dimethyl-2-{4-[4-(3-oxo-3-ureidopropyl)-phenoxy]-phenyl}-3-pyridin-3-yl-acrylamide] was tested, and the inhibition at 0.3 µM (TNF-alpha [6]) was 30%, the inhibition at 3 µM (TNF-alpha [6]) was 62% and the inhibition at 30 µM (TNF-alpha [6]) was 81%.
In the case of `CN(C)C(=O)/C(=C/c1cccnc1)c1ccc(Oc2ccc(CCC(N)=O)cc2)cc1` [Compound 77, 2-{4-[4-(2-carbamoyl-ethyl)-phenoxy]-phenyl}-N,N-dimethyl-3-pyridin-3-yl-acrylamide], the “Percent TNF Production (Mean ± SEM)” value (TNF-alpha [9]; 50 mg/kg oral) is reported as 54 ± 10%, the “Percent TNF Production (Mean ± SEM)” value (TNF-alpha [9]; 100 mg/kg oral) is reported as 67 ± 20% and the “inhibition of LPS-induced TNF-alpha production in mice” value (TNF-alpha [9]) is reported as “significantly inhibited”.
`CN(Cc1cnc2nc(N)nc(N)c2n1)c1ccc(C(=O)N[C@@H](CCC(=O)O)C(=O)O)cc1` [Methotrexate, methotrexate, reference compound] was tested, and the “Percent TNF Production (Mean ± SEM)” value (TNF-alpha [9]; 10 mg/kg oral) was 61 ± 5%.
